According to US20120245137A1 (Zalicus Pharmaceuticals Ltd., priority 2009, published 2012):
pIC50: −log10 of the molar value.

Key:
Format in all cases: cell-based
[1] = biological target: human α1G T-type channels (Homo sapiens, UniProt O43497); assay: T-type calcium channel block, whole cell patch clamp, α1G; conditions: HEK cells stably expressing human α1G; mainly non-inactivated protocol; values above 10,000 nM represented as 10000
Procedure, shortened: (§1)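 Read-out: current block in whole-cell patch clamp of HEK 293 cells stably expressing human α1G or α1H subunits. Compounds were perfused locally in external solution (0.1-0.01% DMSO) under resting and inactivating voltage protocols.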

[2] = biological target: human α1H T-type channels (Homo sapiens, UniProt O95180); assay: T-type calcium channel block, whole cell patch clamp, α1H; conditions: HEK cells stably expressing human α1H; mainly non-inactivated protocol; values above 10,000 nM represented as 10000
Procedure, shortened: as §1

[3] = biological target: N-type calcium channel subunits (α1B, α2δ, and β3a) (Homo sapiens, UniProt Q00975); assay: Block of Cav2.2 channel, whole cell voltage clamp, manual and PatchXpress; conditions: Table 5; table follows Assay Example 3 (whole cell voltage clamp / PatchXpress); assay not given
Procedure, shortened: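 Percent block taken as current amplitude ratio with versus without compound, applied in rising doses; IC50 fitted where one cell received multiple doses. Protocol: 50 ms pulses to +20 mV at 0.067 Hz from […] or −90 mV holding; P/n leak subtraction, no junction-potential correction; manual and PatchXpress recordings.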

Sequence of human α1H T-type channels (O95180 whole entry): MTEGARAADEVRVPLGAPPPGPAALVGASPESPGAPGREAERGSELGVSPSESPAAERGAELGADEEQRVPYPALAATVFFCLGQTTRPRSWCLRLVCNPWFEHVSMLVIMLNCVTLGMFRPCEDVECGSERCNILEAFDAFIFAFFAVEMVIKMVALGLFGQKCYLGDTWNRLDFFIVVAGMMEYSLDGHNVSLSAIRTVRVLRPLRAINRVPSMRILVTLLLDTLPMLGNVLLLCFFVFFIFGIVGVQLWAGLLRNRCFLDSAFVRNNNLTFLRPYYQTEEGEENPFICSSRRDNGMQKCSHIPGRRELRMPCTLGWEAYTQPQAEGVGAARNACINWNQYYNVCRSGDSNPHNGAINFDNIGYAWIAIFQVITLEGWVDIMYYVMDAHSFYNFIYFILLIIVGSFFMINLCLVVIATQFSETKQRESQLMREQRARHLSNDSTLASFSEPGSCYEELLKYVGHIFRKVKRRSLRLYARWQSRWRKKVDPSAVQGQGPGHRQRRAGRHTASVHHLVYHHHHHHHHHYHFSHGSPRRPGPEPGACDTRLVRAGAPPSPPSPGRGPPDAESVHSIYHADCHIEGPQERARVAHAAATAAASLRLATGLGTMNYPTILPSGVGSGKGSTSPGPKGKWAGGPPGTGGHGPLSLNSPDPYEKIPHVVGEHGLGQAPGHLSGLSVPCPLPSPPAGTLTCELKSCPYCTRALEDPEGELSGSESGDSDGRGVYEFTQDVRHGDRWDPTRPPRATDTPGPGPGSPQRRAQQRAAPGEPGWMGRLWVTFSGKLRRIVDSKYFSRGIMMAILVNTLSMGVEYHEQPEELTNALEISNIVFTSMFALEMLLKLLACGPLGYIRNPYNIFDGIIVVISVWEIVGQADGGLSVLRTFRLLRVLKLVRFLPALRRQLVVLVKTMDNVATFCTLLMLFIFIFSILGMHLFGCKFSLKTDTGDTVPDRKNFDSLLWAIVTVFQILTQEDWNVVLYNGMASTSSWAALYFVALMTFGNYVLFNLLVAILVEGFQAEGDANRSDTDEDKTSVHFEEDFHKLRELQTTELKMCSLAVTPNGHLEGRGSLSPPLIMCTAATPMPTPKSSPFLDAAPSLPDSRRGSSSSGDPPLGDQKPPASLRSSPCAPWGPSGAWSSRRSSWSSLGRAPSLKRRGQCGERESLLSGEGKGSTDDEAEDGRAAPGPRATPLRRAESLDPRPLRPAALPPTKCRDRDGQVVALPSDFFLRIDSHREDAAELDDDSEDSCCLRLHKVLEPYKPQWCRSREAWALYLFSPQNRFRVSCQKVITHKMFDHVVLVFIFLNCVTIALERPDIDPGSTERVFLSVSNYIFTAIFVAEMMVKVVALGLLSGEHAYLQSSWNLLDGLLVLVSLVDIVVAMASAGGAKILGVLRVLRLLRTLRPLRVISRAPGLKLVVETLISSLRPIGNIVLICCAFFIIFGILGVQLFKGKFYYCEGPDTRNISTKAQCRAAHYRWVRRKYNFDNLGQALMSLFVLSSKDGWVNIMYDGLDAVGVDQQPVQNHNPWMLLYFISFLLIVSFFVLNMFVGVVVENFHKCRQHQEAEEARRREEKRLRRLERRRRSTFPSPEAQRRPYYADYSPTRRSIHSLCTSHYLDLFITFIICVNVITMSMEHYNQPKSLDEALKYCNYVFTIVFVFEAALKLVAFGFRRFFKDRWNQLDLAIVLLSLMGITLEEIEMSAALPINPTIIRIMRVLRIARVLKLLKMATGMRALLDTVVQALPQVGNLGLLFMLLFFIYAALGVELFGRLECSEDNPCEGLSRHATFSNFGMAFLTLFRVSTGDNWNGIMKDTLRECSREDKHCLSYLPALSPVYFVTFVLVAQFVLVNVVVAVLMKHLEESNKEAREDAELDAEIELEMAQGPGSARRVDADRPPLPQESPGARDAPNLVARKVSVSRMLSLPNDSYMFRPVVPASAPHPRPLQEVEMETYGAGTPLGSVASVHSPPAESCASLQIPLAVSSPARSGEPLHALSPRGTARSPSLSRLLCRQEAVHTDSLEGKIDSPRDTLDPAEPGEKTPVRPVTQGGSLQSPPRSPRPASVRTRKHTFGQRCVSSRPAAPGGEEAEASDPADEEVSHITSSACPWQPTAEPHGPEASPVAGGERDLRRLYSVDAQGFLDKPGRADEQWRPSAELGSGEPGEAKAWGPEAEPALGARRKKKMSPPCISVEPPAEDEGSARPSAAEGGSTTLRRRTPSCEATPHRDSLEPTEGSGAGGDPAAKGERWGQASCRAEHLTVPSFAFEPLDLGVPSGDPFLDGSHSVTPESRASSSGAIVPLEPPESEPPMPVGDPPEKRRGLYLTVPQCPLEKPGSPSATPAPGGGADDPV
Sequence of human α1G T-type channels (O43497 whole entry, the tested form may be a part): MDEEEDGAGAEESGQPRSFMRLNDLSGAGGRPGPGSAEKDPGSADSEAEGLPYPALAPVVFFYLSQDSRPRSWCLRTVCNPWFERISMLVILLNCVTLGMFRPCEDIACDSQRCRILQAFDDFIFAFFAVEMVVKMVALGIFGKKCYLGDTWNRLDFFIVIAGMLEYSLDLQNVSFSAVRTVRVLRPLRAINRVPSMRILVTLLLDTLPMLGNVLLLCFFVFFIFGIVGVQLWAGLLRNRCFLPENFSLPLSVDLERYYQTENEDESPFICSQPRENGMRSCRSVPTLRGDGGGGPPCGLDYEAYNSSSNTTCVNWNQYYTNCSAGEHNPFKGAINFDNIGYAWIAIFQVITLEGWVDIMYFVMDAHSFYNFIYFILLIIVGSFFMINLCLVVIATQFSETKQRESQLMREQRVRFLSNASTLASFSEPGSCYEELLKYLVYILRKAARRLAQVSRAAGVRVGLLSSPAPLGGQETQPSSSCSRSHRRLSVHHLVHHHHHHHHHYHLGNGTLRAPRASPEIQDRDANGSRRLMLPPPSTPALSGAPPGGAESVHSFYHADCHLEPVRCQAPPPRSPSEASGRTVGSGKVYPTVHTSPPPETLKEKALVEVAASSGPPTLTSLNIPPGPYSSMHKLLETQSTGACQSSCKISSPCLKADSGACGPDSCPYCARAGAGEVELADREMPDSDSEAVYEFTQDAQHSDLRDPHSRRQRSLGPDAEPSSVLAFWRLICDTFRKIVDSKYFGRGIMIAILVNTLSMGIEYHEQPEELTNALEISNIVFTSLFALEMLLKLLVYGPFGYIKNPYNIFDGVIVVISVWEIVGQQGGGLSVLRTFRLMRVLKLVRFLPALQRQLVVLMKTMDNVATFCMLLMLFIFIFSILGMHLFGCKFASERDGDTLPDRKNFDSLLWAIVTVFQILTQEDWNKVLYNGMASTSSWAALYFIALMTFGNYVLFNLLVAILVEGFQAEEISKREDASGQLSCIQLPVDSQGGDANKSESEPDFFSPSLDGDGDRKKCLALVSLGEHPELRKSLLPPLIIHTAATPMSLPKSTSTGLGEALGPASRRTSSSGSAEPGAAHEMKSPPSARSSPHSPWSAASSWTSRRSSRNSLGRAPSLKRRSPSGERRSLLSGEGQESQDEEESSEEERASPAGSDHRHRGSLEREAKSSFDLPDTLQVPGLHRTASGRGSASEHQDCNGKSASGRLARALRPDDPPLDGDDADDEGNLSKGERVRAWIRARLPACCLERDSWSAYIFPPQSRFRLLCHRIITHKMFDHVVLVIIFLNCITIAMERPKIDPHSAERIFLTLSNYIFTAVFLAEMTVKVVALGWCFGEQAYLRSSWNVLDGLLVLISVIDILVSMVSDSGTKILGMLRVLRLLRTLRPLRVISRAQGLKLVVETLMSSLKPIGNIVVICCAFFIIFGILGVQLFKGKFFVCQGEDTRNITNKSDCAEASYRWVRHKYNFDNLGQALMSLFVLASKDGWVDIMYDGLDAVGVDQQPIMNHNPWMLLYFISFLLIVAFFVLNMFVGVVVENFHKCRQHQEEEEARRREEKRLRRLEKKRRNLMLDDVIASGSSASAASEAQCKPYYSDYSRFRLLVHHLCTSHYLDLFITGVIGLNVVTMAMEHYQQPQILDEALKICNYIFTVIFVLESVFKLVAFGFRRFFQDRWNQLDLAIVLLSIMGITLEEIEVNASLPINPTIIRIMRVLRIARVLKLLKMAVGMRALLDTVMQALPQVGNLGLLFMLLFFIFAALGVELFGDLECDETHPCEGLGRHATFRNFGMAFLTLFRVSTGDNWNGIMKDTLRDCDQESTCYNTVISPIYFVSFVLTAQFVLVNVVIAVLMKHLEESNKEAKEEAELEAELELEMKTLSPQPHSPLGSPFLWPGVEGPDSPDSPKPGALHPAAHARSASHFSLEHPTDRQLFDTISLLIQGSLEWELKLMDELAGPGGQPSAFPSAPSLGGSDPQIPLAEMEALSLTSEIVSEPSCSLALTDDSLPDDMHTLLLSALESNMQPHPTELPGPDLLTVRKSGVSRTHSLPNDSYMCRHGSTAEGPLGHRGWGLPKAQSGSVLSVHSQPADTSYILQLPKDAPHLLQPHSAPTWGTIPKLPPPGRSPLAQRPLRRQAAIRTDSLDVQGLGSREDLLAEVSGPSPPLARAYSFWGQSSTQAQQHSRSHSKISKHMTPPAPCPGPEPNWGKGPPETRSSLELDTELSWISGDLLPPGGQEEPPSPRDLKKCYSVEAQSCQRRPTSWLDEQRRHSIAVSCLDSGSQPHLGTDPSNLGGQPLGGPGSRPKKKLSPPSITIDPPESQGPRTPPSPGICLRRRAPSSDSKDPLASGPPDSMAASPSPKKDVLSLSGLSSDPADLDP

SMILES	pIC50 [1]	pIC50 [2]	IC50 [3]
O=C(N[C@H]1CC[C@@H](S(=O)(=O)c2cccc(C(F)(F)F)c2)CC1)c1ccc(Cl)c(OC(F)(F)F)c1 [Compound 133, 4-chloro-3-(trifluoromethoxy)-N-((1S,4S)-4-(3-(trifluoromethyl)phenylsulfonyl)cyclohexyl)benzamide]	6.46	6.40	210 nM
COc1cc(Cl)ccc1C(=O)N[C@H]1CC[C@@H](S(=O)(=O)c2cccc(C(F)(F)F)c2)CC1 [Compound 134, 4-chloro-2-methoxy-N-((1S,4S)-4-(3-(trifluoromethyl)phenylsulfonyl)cyclohexyl)benzamide]	5.58	5.74	500 nM
CC1(CNC(=O)c2ccc(F)c(C(F)(F)F)c2)CCC(S(=O)(=O)c2cccc(C(F)(F)F)c2)CC1 (stereo not drawn) [Compound 135, 4-fluoro-N-((1-methyl-4-(3-(trifluoromethyl)phenylsulfonyl)cyclohexyl)methyl)-3-(trifluoromethyl)benzamide]	6.11	6.12	100 nM
COc1cc(F)cc(C(=O)N[C@H]2CC[C@@H](CS(=O)(=O)c3cccc(C(F)(F)F)c3)CC2)c1 [Compound 136, 3-fluoro-5-methoxy-N-((1S,4S)-4-((3-(trifluoromethyl)phenylsulfonyl)methyl)cyclohexyl)benzamide]	6.27	6.26	440 nM
O=C(N[C@H]1CC[C@@H](CS(=O)(=O)c2cccc(C(F)(F)F)c2)CC1)c1ccc(Cl)c(OC(F)(F)F)c1 [Compound 139, 4-chloro-3-(trifluoromethoxy)-N-((1S,4S)-4-((3-(trifluoromethyl)phenylsulfonyl)methyl)cyclohexyl)benzamide]	5.73	5.99	390 nM
O=C(N[C@H]1CC[C@@H](CS(=O)(=O)c2cccc(C(F)(F)F)c2)CC1)c1ccc(Cl)c(F)c1 [Compound 141, 4-chloro-3-fluoro-N-((1S,4S)-4-((3-(trifluoromethyl)phenylsulfonyl)methyl)cyclohexyl)benzamide]	5.37	5.44	600 nM
O=C(N[C@H]1CC[C@@H](CS(=O)(=O)c2cccc(C(F)(F)F)c2)CC1)c1ccc(F)c(Cl)c1 [Compound 142, 3-chloro-4-fluoro-N-((1S,4S)-4-((3-(trifluoromethyl)phenylsulfonyl)methyl)cyclohexyl)benzamide]	5.08	5.23	380 nM
O=C(N[C@H]1CC[C@@H](CS(=O)(=O)c2cccc(C(F)(F)F)c2)CC1)c1ccc(C(F)(F)F)cn1 [Compound 143, 5-(trifluoromethyl)-N-((1S,4S)-4-((3-(trifluoromethyl)phenylsulfonyl)methyl)cyclohexyl)picolinamide]	< 5.00	5.17	950 nM
CN(C(=O)CN[C@H]1CC[C@@H](CS(=O)(=O)c2cccc(C(F)(F)F)c2)CC1)C(C)(C)C [Compound 145, N-tert-butyl-N-methyl-2-((1S,4S)-4-((3-(trifluoromethyl)phenylsulfonyl)methyl)cyclohexylamino)acetamide]	5.23	5.87	1190 nM
COc1cc(C(=O)NCC2(C)CCC(F)(S(=O)(=O)c3cccc(C(F)(F)F)c3)CC2)cc(Cl)n1 (stereo not drawn) [Compound 158, 2-chloro-N-((4-fluoro-1-methyl-4-(3-(trifluoromethyl)phenylsulfonyl)cyclohexyl)methyl)-6-methoxyisonicotinamide]	< 5.00	5.14	480 nM
CC1(CNCC(=O)NC(C)(C)C)CCC(F)(S(=O)(=O)c2cccc(C(F)(F)F)c2)CC1 (stereo not drawn) [Compound 159, N-tert-butyl-2-((4-fluoro-1-methyl-4-(3-(trifluoromethyl)phenylsulfonyl)cyclohexyl)methylamino)acetamide]	< 5.00	< 5.00	460 nM
O=C(CNC1CCCCC1)N[C@H]1CC[C@H](CS(=O)(=O)c2cccc(C(F)(F)F)c2)CC1 [Compound 162, 2-(cyclohexylamino)-N-((1R,4R)-4-((3-(trifluoromethyl)phenylsulfonyl)methyl)cyclohexyl)acetamide]	< 5.00	< 5.00	540 nM
O=C(CNC1CCC(F)(F)CC1)N[C@H]1CC[C@H](CS(=O)(=O)c2cccc(C(F)(F)F)c2)CC1 [Compound 165, 2-(4,4-difluorocyclohexylamino)-N-((1R,4R)-4-((3-(trifluoromethyl)phenylsulfonyl)methyl)cyclohexyl)acetamide]	5.36	5.86	540 nM
O=C(N[C@H]1CC[C@H](S(=O)(=O)c2cccc(C(F)(F)F)c2)CC1)c1cncc(C(F)(F)F)c1 [Compound 190, 5-(trifluoromethyl)-N-((1R,4R)-4-(3-(trifluoromethyl)phenylsulfonyl)cyclohexyl)nicotinamide]	5.25	5.60	600 nM
O=C(N[C@H]1CC[C@@H](S(=O)(=O)c2cccc(C(F)(F)F)c2)CC1)c1ccnn1CC(F)(F)F [Compound 193, l-(2,2,2-trifluoroethyl)-N-((1S,4S)-4-(3-(trifluoromethyl)phenylsulfonyl)cyclohexyl)-1H-pyrazole-5-carboxamide]	5.16	5.80	540 nM
O=C(N[C@H]1CC[C@@H](S(=O)(=O)c2cccc(C(F)(F)F)c2)CC1)c1ccc(OCC(F)(F)F)nc1 [Compound 197, 6-(2,2,2-trifluoroethoxy)-N-((1S,4S)-4-(3-(trifluoromethyl)phenylsulfonyl)cyclohexyl)nicotinamide]	< 5.00	5.25	470 nM
Cc1cc(C(=O)N[C@H]2CC[C@@H](S(=O)(=O)c3cccc(C(F)(F)F)c3)CC2)c(C(F)(F)F)o1 [Compound 198, 5-methyl-2-(trifluoromethyl)-N-((1S,4S)-4-(3-(trifluoromethyl)phenylsulfonyl)cyclohexyl)furan-3-carboxamide]	< 5.00	< 5.00	270 nM
O=C(N[C@H]1CC[C@@H](S(=O)(=O)c2cccc(C(F)(F)F)c2)CC1)c1cncc(C(F)(F)F)c1 [Compound 203, 5-(trifluoromethyl)-N-((1S,4S)-4-(3-(trifluoromethyl)phenylsulfonyl)cyclohexyl)nicotinamide]	5.59	5.72	590 nM
CC(C)(C)S(=O)(=O)c1ccsc1C(=O)N[C@H]1CC[C@@H](S(=O)(=O)c2cccc(C(F)(F)F)c2)CC1 [Compound 204, 3-(tert-butylsulfonyl)-N-((1S,4S)-4-(3-(trifluoromethyl)phenylsulfonyl)cyclohexyl)thiophene-2-carboxamide]	5.45	5.19	210 nM
Cn1nc(C(F)(F)F)cc1C(=O)NCC1(C)CCC(S(=O)(=O)c2cccc(C(F)(F)F)c2)CC1 (stereo not drawn) [Compound 206, 1-methyl-N-((1-methyl-4-(3-(trifluoromethyl)phenylsulfonyl)cyclohexyl)methyl)-3-(trifluoromethyl)-1H-pyrazole-5-carboxamide]	5.45	5.59	420 nM
CC1(CNC(=O)c2ccc(C(F)(F)F)cc2S(C)(=O)=O)CCC(S(=O)(=O)c2cccc(C(F)(F)F)c2)CC1 (stereo not drawn) [Compound 207]	5.87	5.95	260 nM
CC1(CNC(=O)c2ccc(C(F)(F)F)cn2)CCC(S(=O)(=O)c2cccc(C(F)(F)F)c2)CC1 (stereo not drawn) [Compound 208, N-((1-methyl-4-(3-(trifluoromethyl)phenylsulfonyl)cyclohexyl)methyl)-5-(trifluoromethyl)picolinamide]	5.94	5.95	590 nM
COc1cc(C(=O)NCC2(C)CCC(S(=O)(=O)c3cccc(C(F)(F)F)c3)CC2)cc(Cl)n1 (stereo not drawn) [Compound 210, 2-chloro-6-methoxy-N-((1-methyl-4-(3-(trifluoromethyl)phenylsulfonyl)cyclohexyl)methyl)isonicotinamide]	5.31	5.38	380 nM
O=C(N[C@H]1CC[C@@](F)(S(=O)(=O)c2cccc(C(F)(F)F)c2)CC1)c1ccc(OCC(F)(F)F)nc1 [Compound 249, N-((1S,4S)-4-fluoro-4-(3-(trifluoromethyl)phenylsulfonyl)cyclohexyl)-6-(2,2,2-trifluoroethoxy)nicotinamide]	5.58	6.44	260 nM
O=C(N[C@H]1CC[C@](F)(S(=O)(=O)c2cccc(OC(F)(F)F)c2)CC1)c1ccc(F)c(Cl)c1 [Compound 250, 3-chloro-4-fluoro-N-((1R,4R)-4-fluoro-4-(3-(trifluoromethoxy)phenylsulfonyl)cyclohexyl)benzamide]	5.37	6.00	800 nM
O=C(N[C@H]1CC[C@@](F)(S(=O)(=O)c2cccc(OC(F)(F)F)c2)CC1)c1cc(F)cc(Cl)c1 [Compound 251]	5.44	6.24	150 nM
O=C(N[C@H]1CC[C@@](F)(S(=O)(=O)c2cccc(OC(F)(F)F)c2)CC1)c1cncc(C(F)(F)F)c1 [Compound 252, N-((1S,4S)-4-fluoro-4-(3-(trifluoromethoxy)phenylsulfonyl)cyclohexyl)-5-(trifluoromethyl)nicotinamide]	6.35	6.17	350 nM
O=C(N[C@H]1CC[C@@](F)(S(=O)(=O)c2cccc(OC(F)(F)F)c2)CC1)c1ccnn1CC(F)(F)F [Compound 253]	5.92	6.34	320 nM
